# Assays:
# [1] = tested on: Caco-2 epithelial cell layers; assay: Permeability study on the Caco-2 model; type: in vitro ADME, human
# Experimental: (§1) The Caco-2 intestinal epithelial cell line was purchased from ATCC (cat.no. HTB-37) at passage 60. The cells were grown, as previously reported, in Dulbecco’s modified Eagle’s medium (Gibco, Life Technologies, Carlsbad, CA, USA) supplemented with 10% fetal bovine serum (Pan-Biotech GmbH, Aidenbach, Germany) and 50 μg/mL gentamycin in a humidified incubator with 5% CO2 at 37 °C. All plastic surfaces were coated with 0.05% rat tail collagen in sterile distilled water before cell seeding in culture dishes and the medium was changed every 2 days.
# (§2) The concentration of stock solutions for cell culture experiments were 1 mM for both the therapeutic peptide liraglutide and the PN159 peptide, which was used as a reference absorption enhancer. The working solutions were diluted in cell culture medium or Ringer-buffer depending on the experiments. The final concentration of liraglutide encapsulated in the PLGA NPs was 100 µM and was diluted directly before using. Liraglutide was examined at 100 µM, while PN159 was examined at 3 µM concentration both for cell viability and permeability.
# (§3) Caco-2 cells were seeded onto Transwell inserts (polycarbonate membrane, 3 µm pore size, 1.12 cm^2 surface area; Corning Life Sciences, Tewksbury, MA, USA) and cultured for three weeks. […] Treatment solutions from both compartments were collected and the Lira level was detected by HPLC.
# (§4) The apparent permeability coefficients (Papp) were calculated as described previously. […]
# (§5) Recovery (mass balance) was calculated according to the equation: %Recovery=CfDV^D+CfAV^A/C0DV^D×100% where C0D and CfD are the initial and final concentrations of the compound in the donor compartment, respectively; […] is the final concentration in the acceptor compartment; and V^D and V^A are the volumes of the solutions in the donor and acceptor compartments.
# (§6) Lira was analyzed by a reversed phase HPLC (Agilent 1200, San Diego, CA, USA) method that was previously developed and validated in our lab. […]
# [2] = Permeability study on the Caco-2 model; type: in vitro ADME, human; conditions: human; Caco-2 on Transwell (polycarbonate, 3 µm pore, 1.12 cm^2), 3 weeks culture, apical to basal, Ringer-buffer pH 7.4, donor 100 µM liraglutide (PN159 3 µM where present), 1 h, HPLC-UV 214 nm, mean, n = 4; read-out: apparent permeability coefficient (Papp) of liraglutide
# Experimental: as §1, §2, §3, §4, §5, §6
# [3] = tested on: Caco-2 intestinal epithelial cells; assay: Cell viability measurement by impedance; type: cell-based, human; conditions: PN159 3 µM; for cell impedance kinetics: Caco-2, 24-h long treatment, liraglutide 100 µM; for cell index values measured by impedance (cell viability): Caco-2, liraglutide 100 µM, Triton X-100 1 mg/mL, in culture medium, kinetics for 24 h and 1-h time point, 10 kHz, n = 6–12
# Experimental: as §1, §2
# Impedance was measured at 10 kHz by an RTCA SP instrument (RTCA-SP instrument, ACEA Biosciences, San Diego, CA, USA). We have successfully tested the cellular effects of peptides and pharmaceutical excipients by impedance kinetics. For background measurements, 50 μL cell culture medium was added to the wells. This was followed by seeding the cells at a density of 6 × 10^3 cells/well to 96-well plate with gold electrodes (E-plate 96, ACEA Biosciences) coated with collagen. Cells were cultured for 5 days in a CO2 incubator at 37 °C and monitored every 10 min until the end of experiments. Cells were treated at the beginning of the plateau phase of growth. Lira, Lira-loaded PLGA NPs, blank PLGA NPs (without cargo), Lira and PN159 solution, and PN159 peptide were diluted in cell culture medium and the effects were followed for 24 h. Triton X-100 detergent (1 mg/mL) was used as a reference compound to obtain total cell toxicity. Cell index was defined as Rn-Rb at each time point of measurement, where Rn is the cell–electrode impedance of the well when it contains cells and Rb is the background impedance of the well with the medium alone.
# [4] = tested on: pancreatin; assay: Enzymatic degradation study in pancreatin-containing simulated intestinal fluid SIF; type: in vitro ADME, porcine; conditions: SIF with pancreatin (10 g/L, USP), pH 6.8, 37 °C, 100 rpm, 500 μg Lira in 2 mL, HPLC-UV, triplicate
# Experimental: Stability analysis in the presence of pepsin and pancreatin was conducted and compared between native Lira and Lira loaded in PLGA NPs. Five hundred micrograms of native Lira, or the amount of NPs containing an equivalent amount of Lira, were added to 2 mL of pepsin-containing simulated gastric fluid SGF (3.2 g pepsin, 2 g of sodium chloride, 7 mL HCl, mixed and diluted with water to 1 L, pH = 1.2) or pancreatin-containing simulated intestinal fluid SIF (10 g pancreatin, 6.8 g KH2PO4, mixed and adjusted with 0.2 N NaOH then diluted with water to 1 L, pH = 6.8) and incubated at 37 °C under stirring at a speed of 100 rpm. The SGF and SIF were prepared as per USP specifications (Test Solutions, United States Pharmacopeia 35, NF 30, 2012). The same methodology was followed to assess the native Lira stability in SGFsp and SIFsp. […] The samples were centrifuged at 16,500× g and 4 °C for 10 min and the supernatant was analyzed by HPLC to calculate the residual Lira. […] Lira recovery in the withdrawn samples was calculated using the following equation: Lira recovery% = (Remaining Lira amount/theoretical Lira amount) × 100
# as §6
# [5] = tested on: Caco-2 epithelial cells; assay: Immunostaining for junctional proteins ZO-1 and β-catenin; type: cell-based, human; conditions: Caco-2 on glass coverslips, 1 h treatment, Lira 100 µM, PN159 3 µM, confocal microscopy
# Experimental: Aiming to investigate the morphological changes in interepithelial junctions, immunostaining for the junctional proteins, zonula occludens protein-1 (ZO-1) and β-catenin, was carried out. Cells were grown on glass coverslips (Menzel-Glaser, Braunschweig, Germany) at a density of 4 × 10^4 cells/coverslips for 4 days and treated with Lira (100 µM), Lira loaded in PLGA NPs, Lira and PN159 solution, and PN159 peptide (3 µM) solutions for 1 h. After the treatment, the coverslips were washed with phosphate buffer (PBS) and the cells were fixed with 3% paraformaldehyde solution for 15 min at room temperature and incubated in 0.2% TX-100 solution for permeabilization. The cells were blocked with 3% bovine serum albumin in PBS and incubated with the rabbit primary antibodies, anti-ZO-1 and anti-β-catenin, overnight. Incubation with secondary Cy3-labeled anti-rabbit antibody lasted for 1 h. Hoechst dye 33342 was used to stain the cell nuclei. After mounting the samples (Fluoromount-G; Southern Biotech, Birmingham, AL, USA), the staining was visualized by a Visitron spinning disk confocal system (Visitron Systems GmbH, Puchheim, Germany).
compound,measurement,setting,value
CCCCCCCCCCCCCCCC(=O)N[C@@H](CCC(=O)NCCCC[C@H](NC(=O)[C@H](C)NC(=O)[C@H](C)NC(=O)[C@H](CCC(N)=O)NC(=O)CNC(=O)[C@H](CCC(=O)O)NC(=O)[C@H](CC(C)C)NC(=O)[C@H](Cc1ccc(O)cc1)NC(=O)[C@H](CO)NC(=O)[C@H](CO)NC(=O)[C@@H](NC(=O)[C@H](CC(=O)O)NC(=O)[C@H](CO)NC(=O)[C@@H](NC(=O)[C@H](Cc1ccccc1)NC(=O)[C@@H](NC(=O)CNC(=O)[C@H](CCC(=O)O)NC(=O)[C@H](C)NC(=O)[C@@H](N)Cc1cnc[nH]1)[C@@H](C)O)[C@@H](C)O)C(C)C)C(=O)N[C@@H](CCC(=O)O)C(=O)N[C@@H](Cc1ccccc1)C(=O)N[C@H](C(=O)N[C@@H](C)C(=O)N[C@@H](Cc1c[nH]c2ccccc12)C(=O)N[C@@H](CC(C)C)C(=O)N[C@H](C(=O)N[C@@H](CCCNC(=N)N)C(=O)NCC(=O)N[C@@H](CCCNC(=N)N)C(=O)NCC(=O)O)C(C)C)[C@@H](C)CC)C(=O)O [Liraglutide],Recovery (%) Mean ± SD (mass balance),"[1]; after liraglutide permeability on Caco-2 cells, donor 100 µM liraglutide, Ringer-buffer pH 7.4, 1 h, HPLC, mean ± SD",80.9 ± 1.6%
same,"Papp A→B at 1 h, 100 µM",[2],16 ×10⁻⁶ cm/s
same,cell impedance kinetics,[3],no decrease in cell impedance kinetics
same,cell index values measured by impedance (cell viability),[3],did not change the cell index values
same,Lira recovery,"[4]; 30 min incubation, mean ± SD",9.2 ± 0.7%
same,Lira degradation,[4]; 1 h incubation,completely degraded
CC(C)C[C@H](NC(=O)[C@H](C)NC(=O)[C@H](CCCCN)NC(=O)[C@H](CC(C)C)NC(=O)[C@H](C)NC(=O)[C@H](CC(C)C)NC(=O)[C@H](CCCCN)NC(=O)[C@H](CC(C)C)NC(=O)[C@H](C)NC(=O)[C@H](CC(C)C)NC(=O)[C@@H](N)CCCCN)C(=O)N[C@@H](CCCCN)C(=O)N[C@@H](C)C(=O)N[C@@H](C)C(=O)N[C@@H](CC(C)C)C(=O)N[C@@H](CCCCN)C(=O)N[C@@H](CC(C)C)C(=O)N[C@@H](C)C(N)=O [PN159 peptide],cell impedance kinetics,[3],no decrease in cell impedance kinetics
same,cell index values measured by impedance (cell viability),[3],did not change the cell index values
same,junctional morphology (ZO-1 and β-catenin immunostaining),[5],visible change in the staining pattern of β-catenin
O=C1OC2(c3ccc(O)cc3Oc3cc(O)ccc32)c2ccccc21 [fluorescein],Papp of marker molecule,"[1]; Caco-2 monolayers, TEER 893 ± 135 Ω × cm^2 before the experiments",below 0.5 × 10^−6 cm/s
Triton X-100,cell index values measured by impedance (cell viability),[3],impedance dropped to zero
